Target: T1, human β3-AR (Homo sapiens, UniProt P13945)
T1 construct: expressed in transfected cells; host or cells: CHO (Chinese hamster ovary) cells, stably transfected
Assay: cAMP functional agonist assay (LANCE TR-FRET) in CHO cells expressing cloned human β3-AR
Format: cell-based
Settings: for EC50: CHO cells stably expressing cloned human β3-adrenoceptor, cAMP release, read-out: Human β3-AR Agonism EC50; for Fold drop in potency vs. 2-chloropyridine analog: EC50 of comparative example divided by EC50 of corresponding 2-chloropyridine compound; for Human β3-AR Agonist Activity (%): percent maximum activation relative to isoproterenol

T1 sequence (P13945 whole entry): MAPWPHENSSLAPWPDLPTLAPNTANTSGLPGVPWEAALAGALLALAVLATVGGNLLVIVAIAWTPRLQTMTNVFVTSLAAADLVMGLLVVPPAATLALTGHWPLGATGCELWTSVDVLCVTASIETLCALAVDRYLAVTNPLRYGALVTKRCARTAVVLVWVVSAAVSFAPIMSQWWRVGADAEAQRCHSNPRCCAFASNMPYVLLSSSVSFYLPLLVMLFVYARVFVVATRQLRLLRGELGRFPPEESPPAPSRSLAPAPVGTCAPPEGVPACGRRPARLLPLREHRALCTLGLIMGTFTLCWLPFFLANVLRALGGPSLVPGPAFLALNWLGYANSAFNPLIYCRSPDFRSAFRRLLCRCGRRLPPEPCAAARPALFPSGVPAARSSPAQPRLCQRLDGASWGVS

SMILES | EC50 | Fold drop in potency vs. 2-chloropyridine analog | Human β3-AR Agonist Activity (%)
CC(c1cccnc1)N(C)C(=O)c1ccc(C[C@@H]2CC[C@H]([C@H](O)c3ccccc3)N2)cc1 (stereo partly drawn) [Example 23-B, 4-(((2S,5R)-5-((R)-hydroxy(phenyl)methyl)pyrrolidin-2-yl)methyl)-N-methyl-N-(1-(pyridin-3-yl)ethyl)benzamide] | 3 nM | 1.5 fold | 93%
CN(C(=O)c1ccc(C[C@@H]2CC[C@H]([C@H](O)c3ccc(Cl)nc3)N2)cc1)C1CCc2ncccc21 (stereo partly drawn) [Example 24-A, 4-(((2S,5R)-5-((R)-(6-chloropyridin-3-yl)(hydroxy)methyl)pyrrolidin-2-yl)methyl)-N-(6,7-dihydro-5H-cyclopenta[b]pyridin-5-yl)-N-methylbenzamide] | 42 nM |  | 98%
CN(C(=O)c1ccc(C[C@@H]2CC[C@H]([C@H](O)c3ccccc3)N2)cc1)C1CCc2ncccc21 (stereo partly drawn) [Example 24-B, N-(6,7-dihydro-5H-cyclopenta[b]pyridin-5-yl)-4-(((2S,5R)-5-((R)-hydroxy(phenyl)methyl)pyrrolidin-2-yl)methyl)-N-methylbenzamide] | 229 nM | 5.4 fold | 106%
COc1ncccc1CN(C)C(=O)c1ccc(C[C@@H]2CC[C@H]([C@H](O)c3ccc(Cl)nc3)N2)cc1 [Example 25-A, 4-(((2S,5R)-5-((R)-(6-chloropyridin-3-yl)(hydroxy)methyl)pyrrolidin-2-yl)methyl)-N-((2-methoxypyridin-3-yl)methyl)-N-methylbenzamide] | 18 nM |  | 98%
COc1ncccc1CN(C)C(=O)c1ccc(C[C@@H]2CC[C@H]([C@H](O)c3ccccc3)N2)cc1 [Example 25-B, 4-(((2S,5R)-5-((R)-hydroxy(phenyl)methyl)pyrrolidin-2-yl)methyl)-N-((2-methoxypyridin-3-yl)methyl)-N-methylbenzamide] | 109 nM | 6.0 fold | 96%
CN(Cc1cccnc1F)C(=O)c1ccc(C[C@@H]2CC[C@H]([C@H](O)c3ccc(Cl)nc3)N2)cc1 [Example 26-A, 4-(((2S,5R)-5-((R)-(6-chloropyridin-3-yl)(hydroxy)methyl)pyrrolidin-2-yl)methyl)-N-((2-fluoropyridin-3-yl)methyl)-N-methylbenzamide] | 35 nM |  | 97%
CN(Cc1cccnc1F)C(=O)c1ccc(C[C@@H]2CC[C@H]([C@H](O)c3cccc(F)c3)N2)cc1 [Example 26-C, 4-(((2S,5R)-5-((R)-(3-fluorophenyl)(hydroxy)methyl)pyrrolidin-2-yl)methyl)-N-((2-fluoropyridin-3-yl)methyl)-N-methylbenzamide] | 143 nM | 4.1 fold | 98%
CN(Cc1cccnc1F)C(=O)c1ccc(C[C@@H]2CC[C@H]([C@H](O)c3ccc(F)cc3)N2)cc1 [Example 26-F, 4-(((2S,5R)-5-((R)-(4-fluorophenyl)(hydroxy)methyl)pyrrolidin-2-yl)methyl)-N-((2-fluoropyridin-3-yl)methyl)-N-methylbenzamide] | 136 nM | 3.9 fold | 93%
CN(Cc1cccnc1F)C(=O)c1ccc(C[C@@H]2CC[C@H]([C@H](O)c3cccnc3)N2)cc1 [Example 26-H, N-((2-fluoropyridin-3-yl)methyl)-4-(((2S,5R)-5-((R)-hydroxy(pyridin-3-yl)methyl)pyrrolidin-2-yl)methyl)-N-methylbenzamide] | 397 nM | 11.3 fold | 96%
O=C(c1ccc(C[C@@H]2CC[C@H]([C@H](O)c3ccc(Cl)nc3)N2)cc1)N(CCO)Cc1cccnc1F [Example 27-A, 4-(((2S,5R)-5-((R)-(6-chloropyridin-3-yl)(hydroxy)methyl)pyrrolidin-2-yl)methyl)-N-((2-fluoropyridin-3-yl)methyl)-N-(2-hydroxyethyl)benzamide] | 5 nM |  | 57%
O=C(c1ccc(C[C@@H]2CC[C@H]([C@H](O)c3cccnc3)N2)cc1)N(CCO)Cc1cccnc1F [Example 27-H, N-((2-fluoropyridin-3-yl)methyl)-4-(((2S,5R)-5-((R)-hydroxy(pyridin-3-yl)methyl)pyrrolidin-2-yl)methyl)-N-(2-hydroxyethyl)benzamide] | 1390 nM | 288.6 fold | 78%
CN(Cc1ccc(=O)[nH]c1)C(=O)c1ccc(C[C@@H]2CC[C@H]([C@H](O)c3ccc(Cl)nc3)N2)cc1 [Example 28-A, 4-(((2S,5R)-5-((R)-(6-chloropyridin-3-yl)(hydroxy)methyl)pyrrolidin-2-yl)methyl)-N-methyl-N-((6-oxo-1,6-dihydropyridin-3-yl)methyl)benzamide] | 175 nM |  | 87%
CN(Cc1ccc(=O)[nH]c1)C(=O)c1ccc(C[C@@H]2CC[C@H]([C@H](O)c3cccc(F)c3)N2)cc1 [Example 28-C, 4-(((2S,5R)-5-((R)-(3-fluorophenyl)(hydroxy)methyl)pyrrolidin-2-yl)methyl)-N-methyl-N-((6-oxo-1,6-dihydropyridin-3-yl)methyl)benzamide] | 816 nM | 4.7 fold | 78%
CN(Cc1ccc(=O)[nH]c1)C(=O)c1ccc(C[C@@H]2CC[C@H]([C@H](O)c3ccc(F)cc3)N2)cc1 [Example 28-F, 4-(((2S,5R)-5-((R)-(4-fluorophenyl)(hydroxy)methyl)pyrrolidin-2-yl)methyl)-N-methyl-N-((6-oxo-1,6-dihydropyridin-3-yl)methyl)benzamide] | 732 nM | 4.2 fold | 88%
COc1ccc(CN(C)C(=O)c2ccc(C[C@@H]3CC[C@H]([C@H](O)c4ccc(Cl)nc4)N3)cc2)cn1 [Example 29-A, 4-(((2S,5R)-5-((R)-(6-chloropyridin-3-yl)(hydroxy)methyl)pyrrolidin-2-yl)methyl)-N-((6-methoxypyridin-3-yl)methyl)-N-methylbenzamide] | 17 nM |  | 94%
COc1ccc(CN(C)C(=O)c2ccc(C[C@@H]3CC[C@H]([C@H](O)c4ccccc4)N3)cc2)cn1 [Example 29-B, 4-(((2S,5R)-5-((R)-hydroxy(phenyl)methyl)pyrrolidin-2-yl)methyl)-N-((6-methoxypyridin-3-yl)methyl)-N-methylbenzamide] | 86 nM | 5.1 fold | 99%
CN(Cc1ccc(Cl)nc1)C(=O)c1ccc(C[C@@H]2CC[C@H]([C@H](O)c3ccc(Cl)nc3)N2)cc1 [Example 30-A, 4-(((2S,5R)-5-((R)-(6-chloropyridin-3-yl)(hydroxy)methyl)pyrrolidin-2-yl)methyl)-N-((6-chloropyridin-3-yl)methyl)-N-methylbenzamide] | 3 nM |  | 99%
CN(Cc1ccc(Cl)nc1)C(=O)c1ccc(C[C@@H]2CC[C@H]([C@H](O)c3ccccc3)N2)cc1 [Example 30-B, N-((6-chloropyridin-3-yl)methyl)-4-(((2S,5R)-5-((R)-hydroxy(phenyl)methyl)pyrrolidin-2-yl)methyl)-N-methylbenzamide] | 28 nM | 8.9 fold | 100%
CN(Cc1ccc(Cl)nc1)C(=O)c1ccc(C[C@@H]2CC[C@H]([C@H](O)c3ccc(F)cc3)N2)cc1 [Example 30-F, N-((6-chloropyridin-3-yl)methyl)-4-(((2S,5R)-5-((R)-(4-fluorophenyl)(hydroxy)methyl)pyrrolidin-2-yl)methyl)-N-methylbenzamide] | 78 nM | 24.4 fold | 101%
CC(O)c1cncc(CN(C)C(=O)c2ccc(C[C@@H]3CC[C@H]([C@H](O)c4ccc(Cl)nc4)N3)cc2)c1 (stereo partly drawn) [Example 31-A, (((2S,5R)-5-((R)-(6-chloropyridin-3-yl)(hydroxy)methyl)pyrrolidin-2-yl)methyl)-N-((5-(1-hydroxyethyl)pyridin-3-yl)methyl)-N-methylbenzamide] | 7 nM |  | 96%
CC(O)c1cncc(CN(C)C(=O)c2ccc(C[C@@H]3CC[C@H]([C@H](O)c4ccccc4)N3)cc2)c1 (stereo partly drawn) [Example 31-B, 4-(((2S,5R)-5-((R)-hydroxy(phenyl)methyl)pyrrolidin-2-yl)methyl)-N-((5-(1-hydroxyethyl)pyridin-3-yl)methyl)-N-methylbenzamide] | 16 nM | 2.3 fold | 104%
CN(Cc1cncc(C(C)(C)O)c1)C(=O)c1ccc(C[C@@H]2CC[C@H]([C@H](O)c3ccc(Cl)nc3)N2)cc1 [Example 32-A, 4-(((2S,5R)-5-((R)-(6-chloropyridin-3-yl)(hydroxy)methyl)pyrrolidin-2-yl)methyl)-N-((5-(2-hydroxypropan-2-yl)pyridin-3-yl)methyl)-N-methylbenzamide] | 13 nM |  | 94%

Source: patent US20160235727A1, “NOVEL PYRROLIDINE DERIVED BETA 3 ADRENERGIC RECEPTOR AGONISTS” (Merck Sharp & Dohme Corp., priority 2013, published 2016)
